Data taken from US11254671B2, “Chemical compounds” (GLAXOSMITHKLINE INTELLECTUAL PROPERTY DEVELOPMENT LIMITED, priority 2017, dated 2022).
Where “and” joins values, the source holds several entries; their conditions need not be identical. Equal values may be shown once.

Target: T1, mTOR (Homo sapiens, UniProt P42345)
T1 construct: capturing of endogenously expressed target proteins from cell extracts by a bead-immobilized capturing ligand; endogenous in cells; host or cells: HuT-78 cells (ECACC 88041901), cell lysate
Experiment: mTOR kinobeads assay (competition-binding assay)
Conditions: HuT-78 cell extract, endogenously expressed mTOR, bead-immobilized capturing ligand; mean of multiple experiments; read-out: mean pIC50, affinity for mTOR (converted)
Outline: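 Competition binding of endogenous mTOR from HuT-78 cell lysate (250 μg, 5 mg/ml) to immobilized Compound A/C beads, 2 h at 4 °C, pH 7.5, 2% DMSO, 11-point series. Bead-bound mTOR eluted, dot-blotted, detected by anti-mTOR infrared immunofluorescence; normalized to DMSO and 100 μM Compound B controls, 4-parameter fit to pIC50.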

| Structure (SMILES) | IC50 |
| --- | --- |
| CC[C@H]1COCCN1c1cc(CS(C)(=O)=O)cc(-c2ccc3[nH]c(CO)cc3n2)n1 [Example 34, (5-{6-[(3S)-3-ethylmorpholin-4-yl]-4-(methanesulfonylmethyl)pyridin-2-yl}-1H-pyrrolo[3,2-b]pyridin-2-yl)methanol] | 2.51 to 31.6 nM and 2.51 to 316 nM |
| CC[C@H]1COCCN1c1cc(CS(=O)(=O)N(C)C)cc(-c2ccc3[nH]c(CO)cc3n2)n1 [Example 35, 1-{2-[(3S)-3-ethylmorpholin-4-yl]-6-[2-(hydroxymethyl)-1H-pyrrolo[3,2-b]pyridin-5-yl]pyridin-4-yl}-N,N-dimethylmethanesulfonamide] | 2.51 to 31.6 nM and 2.51 to 316 nM |
| CNCc1cc2nc(-c3cc(C4(S(C)(=O)=O)CCOCC4)cc(N4C5CCC4COC5)n3)ccc2[nH]1 [Example 40, ({5-[4-(4-methanesulfonyloxan-4-yl)-6-{3-oxa-8-azabicyclo[3.2.1]octan-8-yl}pyridin-2-yl]-1H-pyrrolo[3,2-b]pyridin-2-yl}methyl)(methyl)amine] | 2.51 to 316 nM |
